# Laboratory results taken from patent US5674697A, “High sensitivity immunoassay for polychlorinated dibenzo-p-dioxins and polychlorinated dibenzofurans” (priority 1995, dated 1997).
# Read-outs that look alike come from different tables or passages of the source.
# Key:
# [1] = cited from earlier work; for TEF* (toxic equivalency factor): Table II, congeners of the TEF Mixture native standard
# DD-3 antibody = assay: Direct competitive EIA with immobilized DD-3 monoclonal antibody and competitor-HRP conjugate; assay type: binding, mouse; settings: for Assay sensitivity compared with the Hapten I enzyme conjugate based assay: analyte 2,3,7,8-TCDD; for Assay sensitivity compared with the Hapten I enzyme conjugate based assay / I50 (pg/well) / I85 (mdl, pg/well): DD-3 antibody; for I50 (pg/well) / I85 (mdl, pg/well): analyte 2,3,7,8-tetrachlorodibenzo-p-dioxin, listed competitor as HRP conjugate
# Excerpt: Antibodies can be readily prepared by standard methods. […] M. Vanderlaan, et al., U.S. Pat. No. 4,798,807 (1989).
# The competitors A-F (FIG. 2) and Hapten I (FIG. 1) were conjugated to the enzyme, amino modified Horseradish Peroxidase (HRP) (horseradish peroxidase commercially available from Sigma Chemical Co. (No. P-6782), St. Louis, Mo.; amino modified per R. Hsiao and H. Royer, Archives Biochem. Biophys., 198, 379-385 (1979) to give 6-24 free amines), using the carbodiimide mediated carboxyl activation procedure described in Example 7. Hapten and competitor load were determined by UV/Vis spectroscopy, also as described in Example 7.
# The direct EIA (immobilized antibody and competitor enzyme conjugate) was performed as follows. Monoclonal antibody supernatant stored at -20° C. was diluted 1,000-40,000 fold with PBS which contained 0.1% Tween-20. This solution was dispensed (500 ul) into donkey anti-mouse second antibody coated tubes (DAM Tubes commercially available from Millipore Corp., Bedford, Mass.) and incubated at room temperature overnight. The antisera solution was decanted from the tubes and the tubes washed 3 times with distilled water. Non-specific sites in the tubes were blocked with 600 ul of BSA blocking buffer (EIA Blocking Buffer commercially available from Millipore Corp., Bedford, Mass.) and incubated for 2 hours at room temperature or overnight at 4° C. The blocking buffer was decanted and the tubes allowed to dry under ambient room conditions for at least 2 hours. The assay was performed by adding 500 ul of assay diluent (1% methanol (v/v) and 0.005% Tween-20 (w/v) in distilled water) to the required number of tubes followed by 10 ul of a methanol solution of the analyte (PCDD or PCDF). After a 5 minute incubation at room temperature, the solution was decanted and the tubes rinsed 3-4 times with tap water. The horseradish peroxidase competitor or Hapten I conjugates were diluted 1,000-60,000 fold from 2-5 mg/ml stock solutions in PBS with conjugate diluent (Enzyme Conjugate Diluent commercially available from Millipore Corp., Bedford, Mass.). The enzyme conjugate (200 ul) was added to the tubes followed by a 5 minute incubation at room temperature. The conjugate solution was decanted and the tubes rinsed 3-4 times with tap water. Enzyme substrate solution (500 ul, KPL No. 50-76-04 commercially available from KPL Laboratories, Gaithersburg, Md.) was added and the tubes were incubated at room temperature for 5-15 minutes. The enzyme reaction was stopped with the addition of 500 ul of 1N HCl. The OD of the solution was determined at 450 nm. The data was plotted using Log (Congener Concentration) versus B/Bo (B=Sample Absorbance, Bo=Sample Blank Absorbance).
# [2] = most toxic PCDD/PCDF congeners, reference 2,3,7,8-TCDD = 1.0, S. Safe 1990
# [3] = toxicity relative to 2,3,7,8-TCDD
# [4] = analyte 2,3,7,8-tetrachlorodibenzofuran, DD-3 and Competitor F
SMILES,TEF* (toxic equivalency factor) [1],"TEF [1, 2]",also measured
"Clc1cc2c(cc1Cl)Oc1c(cc(Cl)c(Cl)c1Cl)O2 [1,2,3,7,8-PeCDD]",0.5,0.5,–
"Clc1cc2oc3c(Cl)c(Cl)c(Cl)c(Cl)c3c2c(Cl)c1Cl [1,2,3,4,7,8,9-HpCDF]",0.01,0.01,–
O=C(O)CCCOc1ccc(Cl)c(Cl)c1 [Competitor D],–,–,"Assay sensitivity compared with the Hapten I enzyme conjugate based assay (DD-3 antibody): significantly more sensitive; I50 (pg/well) (DD-3 antibody): 380 pg/well; I85 (mdl, pg/well) (DD-3 antibody): 15 pg/well"
Clc1c(Cl)c(Cl)c2c(oc3c(Cl)c(Cl)c(Cl)c(Cl)c32)c1Cl [OCDF],0.001,0.001,–
O=C(O)CCCOc1ccc(Cl)cc1Cl [Competitor C],–,–,"Assay sensitivity compared with the Hapten I enzyme conjugate based assay (DD-3 antibody): significantly more sensitive; I50 (pg/well) (DD-3 antibody): 230 pg/well; I85 (mdl, pg/well) (DD-3 antibody): 13 pg/well"
"Clc1cc2c(oc3cc(Cl)c(Cl)c(Cl)c32)c(Cl)c1Cl [1,2,3,6,7,8-HxCDF]",0.1,0.1,–
"O=C(O)CCCCc1cc(Cl)ccc1Cl [Competitor A, 5-(2,5-dichlorophenyl)pentanoic acid]",–,–,"Assay sensitivity compared with the Hapten I enzyme conjugate based assay (DD-3 antibody): significantly more sensitive; I50 (pg/well) (DD-3 antibody): 1,000 pg/well; I85 (mdl, pg/well) (DD-3 antibody): 25 pg/well"
"Clc1cc2oc3cc(Cl)c(Cl)c(Cl)c3c2c(Cl)c1Cl [1,2,3,7,8,9-HxCDF]",0.1,0.1,–
"Clc1cc2c(c(Cl)c1Cl)Oc1c(Cl)c(Cl)c(Cl)c(Cl)c1O2 [1,2,3,4,6,7,8-heptachlorodibenzo-p-dioxin]",–,0.01,"TEF [1, 3]: 0.01"
"Clc1cc2c(cc1Cl)Oc1c(Cl)c(Cl)c(Cl)c(Cl)c1O2 [1,2,3,4,7,8-HxCDD]",0.1,0.1,–
"Clc1cc2oc3c(Cl)c(Cl)c(Cl)c(Cl)c3c2cc1Cl [1,2,3,4,7,8-HxCDF]",0.1,0.1,–
"Clc1cc2c(c(Cl)c1Cl)Oc1c(cc(Cl)c(Cl)c1Cl)O2 [1,2,3,7,8,9-HxCDD]",0.1,0.1,–
O=C(O)CCc1ccc(Cl)c(Cl)c1 [Competitor B],–,–,"Assay sensitivity compared with the Hapten I enzyme conjugate based assay (DD-3 antibody): significantly more sensitive; I50 (pg/well) (DD-3 antibody): 350 pg/well; I85 (mdl, pg/well) (DD-3 antibody): 20 pg/well"
"Clc1cc2c(cc1Cl)Oc1cc(Cl)c(Cl)cc1O2 [2,3,7,8-TCDD, 2,3,7,8-tetrachlorodibenzo-p-dioxin]",1,1.0,"TEF [1, 3]: 1.0"
O=C(O)CCCSc1cc(Cl)ccc1Cl [Competitor E],–,–,"Assay sensitivity compared with the Hapten I enzyme conjugate based assay (DD-3 antibody): significantly more sensitive; I50 (pg/well) (DD-3 antibody): 380 pg/well; I85 (mdl, pg/well) (DD-3 antibody): 15 pg/well"
O=C(O)CCCC(=O)c1ccc(Cl)c(Cl)c1 [Competitor F],–,–,"Assay sensitivity compared with the Hapten I enzyme conjugate based assay (DD-3 antibody): significantly more sensitive; I50 (pg/well) (DD-3 antibody): 230 pg/well; I85 (mdl, pg/well) (DD-3 antibody): 13 pg/well"
"Clc1cc2c(c(Cl)c1Cl)Oc1cc(Cl)c(Cl)c(Cl)c1O2 [1,2,3,6,7,8-HxCDD]",0.1,0.1,–
"Clc1cc2c(oc3c(Cl)c(Cl)c(Cl)cc32)c(Cl)c1Cl [2,3,4,6,7,8-HxCDF]",0.1,0.1,–
"Clc1cc2c(oc3c(Cl)c(Cl)c(Cl)c(Cl)c32)c(Cl)c1Cl [1,2,3,4,6,7,8-HpCDF]",0.01,0.01,–
"Clc1cc2oc3cc(Cl)c(Cl)c(Cl)c3c2cc1Cl [1,2,3,7,8-PeCDF]",0.05,0.05,–
Clc1c(Cl)c(Cl)c2c(c1Cl)Oc1c(Cl)c(Cl)c(Cl)c(Cl)c1O2 [OCDD],0.001,0.001,–
"Clc1cc(Cl)c2c(c1Cl)Oc1c(Cl)c(Cl)c(Cl)c(Cl)c1O2 [1,2,3,4,6,7,9-HpCDD]",0.01,0.01,–
"Clc1cc2oc3cc(Cl)c(Cl)cc3c2cc1Cl [2,3,7,8-TCDF, 2,3,7,8-tetrachlorodibenzofuran]",0.1,0.1,"Factor more sensitive than DD-3 and Hapten I assay system (DD-3 antibody; analyte 2,3,7,8-tetrachlorodibenzofuran, Competitor F versus literature Hapten I assay (Stanker 1987)): ~10; I50 (DD-3 antibody; [4]): 800 pg/well; I85 (mdl) (DD-3 antibody; [4]): 80 pg/well"
